Reference: ChEMBL document CHEMBL5360650, “Discovery of Small-Molecule TIM-3 Inhibitors for Acute Myeloid Leukemia Using Pharmacophore-Based Virtual Screening” (J Med Chem, 2023)
pKd: −log10 of the molar value. Calls of active or inactive are those of the source. No cut-off for these calls is given here.

Tests used:
[1] = biological target: T1, Hepatitis A virus cellular receptor 2 (Homo sapiens, UniProt Q8TDQ0); experiment: Binding affinity to His-tagged recombinant human TIM3 expressed in HEK293 cells assessed as dissociation constant by sensor chip immobilization based SPR analysis
T1 sequence (Q8TDQ0 whole entry): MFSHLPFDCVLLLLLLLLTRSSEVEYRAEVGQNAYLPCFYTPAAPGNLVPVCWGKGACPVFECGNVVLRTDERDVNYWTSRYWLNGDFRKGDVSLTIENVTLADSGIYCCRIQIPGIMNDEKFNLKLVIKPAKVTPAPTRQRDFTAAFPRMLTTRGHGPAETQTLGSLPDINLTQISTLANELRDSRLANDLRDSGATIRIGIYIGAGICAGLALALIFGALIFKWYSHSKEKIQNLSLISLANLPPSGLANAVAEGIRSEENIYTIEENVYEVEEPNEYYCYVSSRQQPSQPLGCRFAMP

[2] = biological target: Hepatitis A virus cellular receptor 2 (Homo sapiens) (UniProt Q8TDQ0); experiment: Inhibition of AF647-labeled TIM3 (unknown origin) binding to ptdSer in staurosporine-induced human Jurkat cells at 200 to 1000 nM preincubated with TIM3 followed by cell culture addition by flow cytometry; type: cell-based; settings: dose 200-1000 nM
THP-1 = experiment: Inhibition of cell proliferation of human THP-1 NucLight Red cells at 5 uM by incucyte based immune cell killing assay; type: functional
[3] = biological target: T1, Hepatitis A virus cellular receptor 2; experiment: Binding affinity to His-tagged recombinant human TIM3 expressed in HEK293 cells assessed as dissociation constant by MST assay; type: cell-based
[4] = biological target: Hepatitis A virus cellular receptor 2 (Homo sapiens) (UniProt Q8TDQ0); experiment: Inhibition of recombinant TIM3 (unknown origin) cocultured in PBMC cells assessed as IFN-gamma release at 5 uM by ELISA method; type: cell-based
Kasumi 1 = experiment: Inhibition of cell proliferation of human Kasumi 1 cocultured with 5 uM compound treated human PBMC cells by H3 thymidine uptake; type: functional, cell-based
[5] = biological target: Hepatitis A virus cellular receptor 2 (Homo sapiens) (UniProt Q8TDQ0); experiment: Inhibition of recombinant human Gal-9 binding to biotinylated recombinant human TIM3 at 1 uM by competitive ELISA method
Homo sapiens = species on record: Homo sapiens; experiment: Inhibition of polyhis-tagged CEACAM1 binding to recombinant human TIM3 at 200 to 1000 nM preincubated with TIM3 for 1 hr followed by CEACAM1 addition measured after 1 hr by ELISA method; settings: dose 200-1000 nM, time 2.0 hrs

| Compound | pKd [1] | also measured |
| --- | --- | --- |
| O=C(COc1ccccc1)Nc1cccc(-c2nc(-c3ccccc3)no2)c1 | 4.20 |  |
| COc1ccc(-c2noc(-c3cccc(NC(=O)COc4ccccc4C)c3)n2)cc1 | 5.08 |  |
| COc1ccc(-c2noc(-c3cccc(OCC(=O)Nc4ccccc4F)c3)n2)cc1 | 4.56 |  |
| COc1ccc(-c2noc(-c3cccc(OCC(=O)Nc4ccc(OC)cc4OC)c3)n2)cc1 | 6.21 | inhibition [2]: Active; inhibition (THP-1): Active; pKd [3]: 9.24; inhibition [4]: Active; inhibition (Kasumi 1): Active; inhibition [5]: Active; inhibition (Homo sapiens): Active |
| COc1ccc(-c2noc(-c3cccc(NC(=O)COc4cccc(C)c4)c3)n2)cc1 | 5.22 |  |
| COc1ccc(-c2noc(-c3ccccc3OCC(=O)Nc3cc(C)cc(C)c3)n2)cc1 | 4.54 |  |
| COc1ccc(-c2noc(-c3cccc(OCC(=O)Nc4cc(OC)ccc4OC)c3)n2)cc1 | 6.01 |  |
| CCOc1ccc(NC(=O)COc2cccc(-c3noc(-c4ccc(OC)cc4)n3)c2)cc1 | 5.89 |  |
| Cc1ccc(-c2noc(-c3cccc(NC(=O)COc4ccccc4)c3)n2)cc1 | 4.37 |  |
| CCOc1ccc(NC(=O)COc2cccc(-c3nc(-c4ccc(OC)cc4)no3)c2)cc1 | 5.87 |  |
| COc1ccc(-c2noc(-c3cccc(OCC(=O)Nc4ccncc4)c3)n2)cc1 | 5.70 |  |
| Cc1ccc(Nc2nc(C)cc(Nc3ccc(NC(=O)c4ccc5c(c4)OCO5)cc3)n2)cc1 | 4.76 |  |
| COc1ccc(-c2noc(-c3cccc(OCC(=O)Nc4ccc(F)cc4)c3)n2)cc1 | 4.69 |  |
| Cc1ccc(OCC(=O)Nc2cccc(-c3nc(-c4ccccc4)no3)c2)cc1 | 4.27 |  |
| COc1ccc(-c2noc(-c3cccc(OCC(=O)Nc4cccc(OC)c4)c3)n2)cc1 | 5.79 |  |
| COc1ccc(-c2noc(-c3cccc(NC(=O)COc4ccccc4)c3)n2)cc1 | 4.90 |  |
| COc1ccc(-c2noc(-c3cccc(OCC(=O)Nc4cccc(C)c4)c3)n2)cc1 | 5.51 |  |
| COc1ccc(-c2noc(-c3cccc(NC(=O)COc4ccc(C)cc4)c3)n2)cc1 | 5.02 |  |
| COc1ccc(-c2noc(-c3cccc(OCC(=O)NCc4ccco4)c3)n2)cc1 | 4.94 |  |
| COc1cc(-c2cc(OC)c3c(C)oc(C)c3c(=O)c2)ccc1OC(=O)c1ccc(C)cc1 | 4.54 |  |
| Cc1cccc(-c2noc(-c3cccc(NC(=O)COc4ccccc4)c3)n2)c1 | 4.33 |  |
| COc1ccc(-c2noc(-c3cccc(OCC(=O)Nc4ccc(C)nc4)c3)n2)cc1 | 5.61 |  |
